{"source": "patent US6706285B1", "about": "“Enteric coated formulation of a benzimidazole derivative and method for preparation thereof” (Hanms Pharm. Co., Ltd., priority 1998, dated 2004)", "origin": "cited, not measured here", "note": "Where two headings read alike, the source gives them in different places."}
{"smiles": "COc1ccc2[nH]c([S+]([O-])Cc3ncc(C)c(OC)c3C)nc2c1", "note": "(stereo not drawn) [omeprazole, 5-methoxy-2[[(4-methoxy-3,5-dimethyl-2-pyridinyl)methyl]sulfinyl]-1H-benzimidazole]", "values": [{"measurement": "half-life", "setting": "acidic condition at a pH of 4 or less", "result": "less than 10 minutes"}, {"measurement": "half-life", "setting": "at a pH of 11", "result": "about 300 days"}, {"measurement": "half-life", "setting": "neutral condition at a pH of about 7.0", "result": "about 14 hours"}]}
